Reference: publication PMC7559125 (Pathogens, 2020)

How the values were obtained:
[1] = tested on: A/Yokohama/59/2016 (wild-type); experiment: microbe, parasite or virus in culture; details: Influenza A virus
[2] = tested on: A/Sakai/23/2013 (wild-type); experiment: microbe, parasite or virus in culture; details: Influenza A virus
[3] = tested on: A/Yokohama/40/2016 (wild-type); experiment: microbe, parasite or virus in culture; details: Influenza A virus
[4] = tested on: A/Yokohama/40/2016 (wild-type); experiment: microbe, parasite or virus in culture; details: Influenza A virus, AX4
[5] = tested on: A/Yokohama/59/2016 (wild-type); experiment: microbe, parasite or virus in culture; details: Influenza A virus, AX4
[6] = tested on: A/Sakai/23/2013 (wild-type); experiment: microbe, parasite or virus in culture; details: Influenza A virus, AX4
[7] = target: neuraminidase of A/Sakai/23/2013 (wild-type) (Influenza A virus, UniProt W8DXJ8)
[8] = target: neuraminidase of A/Yokohama/59/2016 (wild-type) (Influenza A virus, UniProt A0A0X9QTS2)
[9] = target: neuraminidase of A/Yokohama/40/2016 (wild-type) (Influenza A virus, UniProt A0A0X9QTS2)

Question: How did the IC50 [1] turn out when `O=C1c2c(O)c(=O)ccn2N([C@@H]2c3ccccc3SCc3c2ccc(F)c3F)[C@@H]2COCCN12` [Baloxavir, Baloxavir acid] was run?
Answer: 11 nM

Question: What about the IC50 [2] of the same compound?
Answer: 4.05 nM

Question: And the IC50 [3]?
Answer: 6.16 nM

Question: With `NC(=O)c1nc(F)c[nH]c1=O` [Favipiravir, favipiravir] as the compound, how does the EC50 [4] read?
Answer: 10000 nM

Question: And the EC50 [5]?
Answer: 8810 nM

Question: And the EC50 [6]?
Answer: 6640 nM

Question: `CCC(CC)[C@H](NC(C)=O)[C@@H]1[C@H](O)[C@@H](C(=O)O)C[C@H]1N=C(N)N.O.O.O` [Peramivir, peramivir trihydrate] was tested. Which IC50 [7] did it give?
Answer: 0.01 nM

Question: What about the IC50 [8] of the same compound?
Answer: 0.08 nM

Question: And the IC50 [9]?
Answer: 0.07 nM
